Source: the supplement of paper PMC7244745
± gives the uncertainty stated by the source.

What was measured:
[1] = system: Klebsiella pneumoniae ATCC 13882; test: onset of ureolytic pH increase; higher = more delayed ureolysis (inhibition)
Experimental: (§1)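 Klebsiella pneumoniae ATCC 13882 (start OD600 0.05) grown in M9U medium with 40 mM urea and phenol red plus inhibitor, in triplicate in 96-well plates. A557 and OD630 were read every 15 min for 24 h. Ureolysis was followed as the pH-related A557-A630: onset time, Gompertz-fit rate and final value. Growth was followed as OD630.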

[2] = system: Klebsiella pneumoniae ATCC 13882; test: final OD630 (growth) after 24 h; higher = more bacterial growth; extreme values may be limits of the assay
Experimental: as §1

[3] = system: Klebsiella pneumoniae ATCC 13882; test: rate of pH (A557-A630) increase, Gompertz fit (10^-4 s-1); higher = faster ureolysis; extreme values may be limits of the assay
Experimental: as §1

[4] = system: Klebsiella pneumoniae ATCC 13882; test: final pH-related absorbance (A557-A630) after 24 h (absorbance units); higher = more ureolysis; extreme values may be limits of the assay
Experimental: as §1

SMILES	onset of ureolytic pH increase ([1]; 0.1 mM) [min]	onset of ureolytic pH increase ([1]; 1 mM) [min]	onset of ureolytic pH increase ([1]; 10 mM) [min]	final OD630 ([2]; 0.1 mM)	final OD630 ([2]; 1 mM)	final OD630 ([2]; 10 mM)	rate of pH ([3]; 0.1 mM)	rate of pH ([3]; 1 mM)	rate of pH ([3]; 10 mM)	final pH-related absorbance ([4]; 0.1 mM)	final pH-related absorbance ([4]; 1 mM)	final pH-related absorbance ([4]; 10 mM)	further results
O=C(O)CCC(CC(=O)O)C(=O)O (stereo not drawn) [1,2,4-butanetricarboxylic acid]	685.49 ± 0.14	678.3 ± 3.3	> 900	0.424 ± 0.0051	0.433 ± 0.0031	0	1.526 ± 0.014	1.58 ± 0.019	0	0.33 ± 0.0058	0.277 ± 0.0026	0	–
NC(=S)Nc1cccc(C(=O)O)c1 [1-(3-Carboxyphenyl)-2-thiourea]	–	–	–	–	–	–	–	–	–	–	–	–	onset of ureolytic pH increase ([1]; 0.00075 mM): 436 ± 6.5 min; onset of ureolytic pH increase ([1]; 0.0075 mM): 423 ± 18 min; onset of ureolytic pH increase ([1]; 0.075 mM): 435 ± 6.4 min; final OD630 ([2]; 0.00075 mM): 0.489 ± 0.005; final OD630 ([2]; 0.0075 mM): 0.51 ± 0.017; final OD630 ([2]; 0.075 mM): 0.49 ± 0.01; rate of pH ([3]; 0.00075 mM): 1.92 ± 0.078; rate of pH ([3]; 0.0075 mM): 2.06 ± 0.18; rate of pH ([3]; 0.075 mM): 2.15 ± 0.048; final pH-related absorbance ([4]; 0.00075 mM): 0.246 ± 0.012; final pH-related absorbance ([4]; 0.0075 mM): 0.27 ± 0.023; final pH-related absorbance ([4]; 0.075 mM): 0.24 ± 0.011
O[C@@H](CS)[C@@H](O)CS [1.4-dithiothreitol]	610 ± 19	980 ± 19	1010 ± 7.1	0.432 ± 0.079	0.306 ± 0.0084	0.264 ± 0.0063	1.81 ± 0.074	0.11 ± 0.0047	0.0642 ± 0.0044	0.381 ± 0.013	0.274 ± 0.02	0.137 ± 0.013	–
O=C1CC(=O)NC(=S)N1 [2-Thiobarbituric acid]	–	–	–	–	–	–	–	–	–	–	–	–	onset of ureolytic pH increase ([1]; 0.012 mM): 556.8 ± 1.3 min; onset of ureolytic pH increase ([1]; 0.118 mM): 581 ± 24 min; onset of ureolytic pH increase ([1]; 1.18 mM): > 900 min; final OD630 ([2]; 0.012 mM): 0.449 ± 0.007; final OD630 ([2]; 0.118 mM): 0.437 ± 0.008; final OD630 ([2]; 1.18 mM): 0.303 ± 0.028; rate of pH ([3]; 0.012 mM): 2.14 ± 0.06; rate of pH ([3]; 0.118 mM): 2.04 ± 0.024; rate of pH ([3]; 1.18 mM): 0; final pH-related absorbance ([4]; 0.012 mM): 0.201 ± 0.008; final pH-related absorbance ([4]; 0.118 mM): 0.194 ± 0.006; final pH-related absorbance ([4]; 1.18 mM): 0
O=[N+]([O-])C(Br)(CO)CO [2-bromo-2-nitropropane-1.3-diol]	> 1500	> 1500	> 1500	0	0	0	0	0	0	0	0	0	–
OCCS [2-mercaptoethanol]	602 ± 7.5	> 1500	> 1500	0.416 ± 0.0027	0.208 ± 0.0036	0.155 ± 0.0041	1.72 ± 0.061	0	0	0.19 ± 0.0096	0	0	–
CC1=CC(=O)C(C)=CC1=O [2.5-dimethyl-1.4-benzoquinone]	–	–	–	–	–	–	–	–	–	–	–	–	onset of ureolytic pH increase ([1]; 0.011 mM): 594.3 ± 2.4 min; onset of ureolytic pH increase ([1]; 0.107 mM): 945 min; onset of ureolytic pH increase ([1]; 1.07 mM): 0 min; final OD630 ([2]; 0.011 mM): 0.33 ± 0.011; final OD630 ([2]; 0.107 mM): 0.336; final OD630 ([2]; 1.07 mM): 0; rate of pH ([3]; 0.011 mM): 1.46 ± 0.047; rate of pH ([3]; 0.107 mM): 1.97; rate of pH ([3]; 1.07 mM): 0.535 ± 0.0079; final pH-related absorbance ([4]; 0.011 mM): 0.152 ± 0.0068; final pH-related absorbance ([4]; 0.107 mM): 0.116; final pH-related absorbance ([4]; 1.07 mM): 0.475 ± 0.011
O=c1oc2ccccc2c(O)c1Cc1c(O)c2ccccc2oc1=O [3.3'-methylene-bis-(4-hydroxycoumarin)]	–	–	–	–	–	–	–	–	–	–	–	–	onset of ureolytic pH increase ([1]; 0.0035 mM): 563 ± 1.1 min; onset of ureolytic pH increase ([1]; 0.035 mM): 592 ± 30 min; onset of ureolytic pH increase ([1]; 0.35 mM): 614 ± 8.9 min; final OD630 ([2]; 0.0035 mM): 0.424 ± 0.0021; final OD630 ([2]; 0.035 mM): 0.409 ± 0.012; final OD630 ([2]; 0.35 mM): 0.403 ± 0.0058; rate of pH ([3]; 0.0035 mM): 1.45 ± 0.019; rate of pH ([3]; 0.035 mM): 1.44 ± 0.039; rate of pH ([3]; 0.35 mM): 1.4; final pH-related absorbance ([4]; 0.0035 mM): 0.161 ± 0.0024; final pH-related absorbance ([4]; 0.035 mM): 0.158 ± 0.0007; final pH-related absorbance ([4]; 0.35 mM): 0.16 ± 0.0029
OB(O)c1ccc(Br)cc1 [4-bromophenylboronic acid]	–	–	–	–	–	–	–	–	–	–	–	–	onset of ureolytic pH increase ([1]; 0.0017 mM): 745 ± 19 min; onset of ureolytic pH increase ([1]; 0.017 mM): 0 min; onset of ureolytic pH increase ([1]; 0.173 mM): > 1500 min; final OD630 ([2]; 0.0017 mM): 0.451 ± 0.0066; final OD630 ([2]; 0.017 mM): 0; final OD630 ([2]; 0.173 mM): 0; rate of pH ([3]; 0.0017 mM): 0.0566 ± 0.0019; rate of pH ([3]; 0.017 mM): 0.0294 ± 0.0052; rate of pH ([3]; 0.173 mM): 0; final pH-related absorbance ([4]; 0.0017 mM): 0.12 ± 0.0018; final pH-related absorbance ([4]; 0.017 mM): 0.269 ± 0.042; final pH-related absorbance ([4]; 0.173 mM): 0
CC(=O)NO [Acetohydroxamic acid]	507 ± 13	725 ± 9.2	> 900	0.479 ± 0.016	0.356 ± 0.01	0.258 ± 0.004	1.12 ± 0.047	1.31 ± 0.054	0	0.437 ± 0.044	0.057 ± 0.006	0	–
CC(=O)NC(N)=S [Acetylthiourea]	–	–	–	–	–	–	–	–	–	–	–	–	onset of ureolytic pH increase ([1]; 0.05 mM): 428 ± 8.9 min; onset of ureolytic pH increase ([1]; 0.5 mM): 425.7 ± 3.9 min; onset of ureolytic pH increase ([1]; 5 mM): 415 ± 16 min; final OD630 ([2]; 0.05 mM): 0.491 ± 0.011; final OD630 ([2]; 0.5 mM): 0.491 ± 0.004; final OD630 ([2]; 5 mM): 0.507 ± 0.021; rate of pH ([3]; 0.05 mM): 2 ± 0.057; rate of pH ([3]; 0.5 mM): 2.03 ± 0.042; rate of pH ([3]; 5 mM): 2.62 ± 0.37; final pH-related absorbance ([4]; 0.05 mM): 0.241 ± 0.011; final pH-related absorbance ([4]; 0.5 mM): 0.246 ± 0.002; final pH-related absorbance ([4]; 5 mM): 0.284 ± 0.05
O=[N+]([O-])[O-].[Ag+] [AgNO3]	> 1500	> 1500	> 1500	0	0	0	0	0	0	0	0	0	–
NC(=O)NC1NC(=O)NC1=O (stereo not drawn) [Allantoin]	–	–	–	–	–	–	–	–	–	–	–	–	onset of ureolytic pH increase ([1]; 0.033 mM): 577.5 ± 5.1 min; onset of ureolytic pH increase ([1]; 0.33 mM): 577.1 ± 4.4 min; onset of ureolytic pH increase ([1]; 3.33 mM): 602 ± 7 min; final OD630 ([2]; 0.033 mM): 0.525 ± 0.0093; final OD630 ([2]; 0.33 mM): 0.507 ± 0.0058; final OD630 ([2]; 3.33 mM): 0.495 ± 0.0081; rate of pH ([3]; 0.033 mM): 1.66 ± 0.032; rate of pH ([3]; 0.33 mM): 1.718 ± 0.017; rate of pH ([3]; 3.33 mM): 1.68 ± 0.02; final pH-related absorbance ([4]; 0.033 mM): 0.231 ± 0.0095; final pH-related absorbance ([4]; 0.33 mM): 0.216 ± 0.003; final pH-related absorbance ([4]; 3.33 mM): 0.222 ± 0.0053
C=CCNC(N)=S [Allylthiourea]	563.5 ± 4.1	596 ± 29	776 ± 7.4	0.417 ± 0.013	0.397 ± 0.015	0.366 ± 0.0047	1.47 ± 0.046	1.454 ± 0.0015	1.383 ± 0.0037	0.159 ± 0.0052	0.154 ± 0.0052	0.135 ± 0.0034	–
OB(O)O [Boric acid]	591 ± 6.2	616 ± 34	> 900	0.437 ± 0.0082	0.432 ± 0.0018	0.297 ± 0.0064	1.62 ± 0.03	1.48 ± 0.2	0	0.409 ± 0.0087	0.418 ± 0.018	0	–
NCCNCCNCCN [Triethylenetetraamine]	–	–	–	0.448 ± 0.091	0.384 ± 0.017	0	–	–	–	–	–	–	–
